Data as given in patent US10968203B2, “Pyrimidinyl-pyridyloxy-naphthyl compounds and methods of treating IRE1-related diseases and disorders” (Genentech, Inc., priority 2017, dated 2021).
Where a name gives a salt, the structure may show the parent alone.

The compounds below were run on XBP1s-luc 293 LUC (assay: cellular PD assay, XBP1s-LUC reporter (Example 903)). Conditions: Table 2; read-out: XBP1s-luc 293 LUC (IC50).
Assay type: cell-based
Procedure, shortened: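 Cellular IRE1α pathway activity was quantified from the luciferase signal of an XBP1-Luc reporter, where the luciferase fusion is in frame and expressed only from the spliced XBP1 transcript.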

| Compound | IC50 |
| --- | --- |
| Cc1ccc2c(NS(=O)(=O)CCC3CC3)c(F)ccc2c1Oc1ncccc1-c1ccnc(N[C@H]2CCCNC2)n1 [Example 399, (S)-2-Cyclopropyl-N-(2-fluoro-6-methyl-5-((3-(2-(piperidin-3-ylamino)pyrimidin-4-yl)pyridin-2-yl)oxy)naphthalen-1-yl)ethanesulfonamide hydrochloride] | 72 nM |
| Cc1ccc2c(NS(=O)(=O)CC3CCC3)c(F)ccc2c1Oc1ncccc1-c1ccnc(N[C@H]2CCCNC2)n1 [Example 400, (S)-1-Cyclobutyl-N-(2-fluoro-6-methyl-5-((3-(2-(piperidin-3-ylamino)pyrimidin-4-yl)pyridin-2-yl)oxy)naphthalen-1-yl)methanesulfonamide hydrochloride] | 26 nM |
| Cc1ccc2c(NS(=O)(=O)CC(C)C)c(F)ccc2c1Oc1ncccc1-c1ccnc(N[C@@H]2CNC[C@@H](C)C2)n1 [Example 401, N-[2-Fluoro-6-methyl-5-[[3-[2-[[(3S,5S)-5-methyl-3-piperidyl]amino]pyrimidin-4-yl]-2-pyridyl]oxy]-1-naphthyl]-2-methyl-propane-1-sulfonamide hydrochloride] | 67 nM |
| Cc1ccc2c(NS(=O)(=O)Cc3cscn3)c(F)ccc2c1Oc1ncccc1-c1ccnc(N[C@H]2CCCNC2)n1 [Example 402, (S)—N-(2-Fluoro-6-methyl-5-((3-(2-(piperidin-3-ylamino)pyrimidin-4-yl)pyridin-2-yl)oxy)naphthalen-1-yl)-1-(thiazol-4-yl)methanesulfonamide hydrochloride] | 51 nM |
| Cc1ccc2c(NS(=O)(=O)c3ccc4c(c3)OCO4)c(F)ccc2c1Oc1ncccc1-c1ccnc(N[C@H]2CCCNC2)n1 [Example 403, N-[2-Fluoro-6-methyl-5-[[3-[2-[[(3S)-3-piperidyl]amino]pyrimidin-4-yl]-2-pyridyl]oxy]-1-naphthyl]-1,3-benzodioxole-5-sulfonamide] | 44 nM |
| COC(C)CS(=O)(=O)Nc1c(F)ccc2c(Oc3ncccc3-c3ccnc(N[C@H]4CCCNC4)n3)c(C)ccc12 (stereo partly drawn) [Example 404, N-(2-Fluoro-6-methyl-5-((3-(2-(((S)-piperidin-3-yl)amino)pyrimidin-4-yl)pyridin-2-yl)oxy)naphthalen-1-yl)-2-methoxypropane-1-sulfonamide] | 34 nM |
| Cc1ccc2c(NS(=O)(=O)CC3CC3)c(F)ccc2c1Oc1ncccc1-c1ccnc(N[C@H]2CCCNC2)n1 [Example 405, (S)-1-Cyclopropyl-N-(2-fluoro-6-methyl-5-((3-(2-(piperidin-3-ylamino)pyrimidin-4-yl)pyridin-2-yl)oxy)naphthalen-1-yl)methanesulfonamide hydrochloride] | 25 nM |
| Cc1ccc2c(NS(=O)(=O)CCCF)c(F)ccc2c1Oc1ncccc1-c1ccnc(N[C@H]2CCCNC2)n1 [Example 406, (S)-3-Fluoro-N-(2-fluoro-6-methyl-5-((3-(2-(piperidin-3-ylamino)pyrimidin-4-yl)pyridin-2-yl)oxy)naphthalen-1-yl)propane-1-sulfonamide hydrochloride] | 31 nM |
| Cc1ccc2c(NC(=O)/C=C/C(F)(F)F)cccc2c1Oc1ncccc1-c1ccnc(N[C@H]2CCCNC2)n1 [Example 407, (S)-4,4,4-Trifluoro-N-(6-methyl-5-((3-(2-(piperidin-3-ylamino)pyrimidin-4-yl)pyridin-2-yl)oxy)naphthalen-1-yl)but-2-enamide] | 221 nM |
| Cc1ccc2c(NS(=O)(=O)N(C)Cc3ccccc3)c(F)ccc2c1Oc1ncccc1-c1ccnc(N[C@H]2CCCNC2)n1 [Example 410, 4-[2-[[5-[[Benzyl(methyl)sulfamoyl]amino]-6-fluoro-2-methyl-1-naphthyl]oxy]-3-pyridyl]-2-[[(3S)-3-piperidyl]amino]pyrimidine hydrochloride] | 87 nM |
| Cc1nc(CS(=O)(=O)Nc2c(F)ccc3c(Oc4ncccc4-c4ccnc(N[C@H]5CCCNC5)n4)c(C)ccc23)cs1 [Example 411, (S)—N-(2-Fluoro-6-methyl-5-((3-(2-(piperidin-3-ylamino)pyrimidin-4-yl)pyridin-2-yl)oxy)naphthalen-1-yl)-1-(2-methylthiazol-4-yl)methanesulfonamide hydrochloride] | 12 nM |
| Cc1cc(CS(=O)(=O)Nc2c(F)ccc3c(Oc4ncccc4-c4ccnc(N[C@H]5CCCNC5)n4)c(C)ccc23)no1 [Example 412, (S)—N-(2-Fluoro-6-methyl-5-((3-(2-(piperidin-3-ylamino)pyrimidin-4-yl)pyridin-2-yl)oxy)naphthalen-1-yl)-1-(5-methylisoxazol-3-yl)methanesulfonamide hydrochloride] | 7 nM |
| Cc1ccc2c(NS(=O)(=O)C=C3CCC3)c(F)ccc2c1Oc1ncccc1-c1ccnc(N[C@H]2CCCNC2)n1 [Example 413, 1-Cyclobutylidene-N-[2-fluoro-6-methyl-5-[[3-[2-[[(3S)-3-piperidyl]amino]pyrimidin-4-yl]-2-pyridyl]oxy]-1-naphthyl]methanesulfonamide hydrochloride] | 50 nM |
| Cc1ccc2c(NS(=O)(=O)Cc3ccc(OC(F)(F)F)cc3)c(F)ccc2c1Oc1ncccc1-c1ccnc(N[C@H]2CCCNC2)n1 [Example 419, (S)—N-(2-Fluoro-6-methyl-5-((3-(2-(piperidin-3-ylamino)pyrimidin-4-yl)pyridin-2-yl)oxy)naphthalen-1-yl)-1-(4-(trifluoromethoxy)phenyl)methanesulfonamide hydrochloride] | 129 nM |
| CCCN(C)S(=O)(=O)Nc1c(F)ccc2c(Oc3ncccc3-c3ccnc(N[C@H]4CCCNC4)n3)c(C)ccc12 [Example 420, 4-[2-[[6-Fluoro-2-methyl-5-[[methyl(propyl)sulfamoyl]amino]-1-naphthyl]oxy]-3-pyridyl]-2-[[(3S)-3-piperidyl]amino]pyrimidine hydrochloride] | 41 nM |
| CCN(C)S(=O)(=O)Nc1c(F)ccc2c(Oc3ncccc3-c3ccnc(N[C@H]4CCCNC4)n3)c(C)ccc12 [Example 421, 4-[2-[[5-[[Ethyl(methyl)sulfamoyl]amino]-6-fluoro-2-methyl-1-naphthyl]oxy]-3-pyridyl]-2-[[(3S)-3-piperidyl]amino]pyrimidine hydrochloride] | 44 nM |
| Cc1ccc2c(NC[C@@H](C#N)C(C)C)cccc2c1Oc1ncccc1-c1ccnc(N[C@H]2CCCNC2)n1 [Example 423, (S)-3-Methyl-2-(((6-methyl-5-((3-(2-(((S)-piperidin-3-yl)amino)pyrimidin-4-yl)pyridin-2-yl)oxy)naphthalen-1-yl)amino)methyl) butanenitrile] | 207 nM |
| CCCS(=O)(=O)Nc1cccc2c(Oc3ncc(OC)cc3-c3ccnc(N[C@H]4CCCNC4)n3)c(C)ccc12 [Example 424, (S)—N-(5-((5-Methoxy-3-(2-(piperidin-3-ylamino)pyrimidin-4-yl)pyridin-2-yl)oxy)-6-methylnaphthalen-1-yl)propane-1-sulfonamide hydrochloride] | 392 nM |
| Cc1ccc2c(NS(=O)(=O)Cc3cccc(C#N)c3)c(F)ccc2c1Oc1ncccc1-c1ccnc(N[C@H]2CCCNC2)n1 [Example 425, (S)-1-(3-Cyanophenyl)-N-(2-fluoro-6-methyl-5-((3-(2-(piperidin-3-ylamino)pyrimidin-4-yl)pyridin-2-yl)oxy)naphthalen-1-yl)methanesulfonamide hydrochloride] | 16 nM |
